Measured values published in US10676477B2, “Factor XIa macrocycle inhibitors bearing a non-aromatic P2' group” (BRISTOL-MYERS SQUIBB COMPANY, priority 2015, dated 2020).
Counter-ions that a name gives are not always drawn.

How the values were obtained:
human Factor XIa = biological target: T1, human Factor XIa (Homo sapiens, UniProt P03951); assay: Factor XIa enzyme inhibition assay (chromogenic substrate S-2366), Ki; type: biochemical; details: purified human Factor XIa, substrate S-2366, pH 7.4
T1 construct: purchased Haematologic Technologies
Procedure: (§1) The effectiveness of compounds of the present invention as inhibitors of the coagulation Factors XIa, VIIa, IXa, Xa, XIIa, plasma kallikrein chymotrypsin, trypsin, or thrombin, can be determined using a relevant purified serine protease, respectively, and an appropriate synthetic substrate. The rate of hydrolysis of the chromogenic or fluorogenic substrate by the relevant serine protease was measured both in the absence and presence of compounds of the present invention. […] A decrease in the rate of absorbance or fluorescence change in the presence of inhibitor is indicative of enzyme inhibition. Such methods are known to one skilled in the art. The results of this assay are expressed as the inhibitory constant, Ki.
Factor XIa determinations were made in 50 mM HEPES buffer at pH 7.4 containing 145 mM NaCl, 5 mM KCl, and 0.1% PEG 8000 (polyethylene glycol; JT Baker or Fisher Scientific). Determinations were made using purified human Factor XIa at a final concentration of 25-200 pM (Haematologic Technologies) and the synthetic substrate S-2366 (pyroGlu-Pro-Arg-pNA; CHROMOGENIX® or AnaSpec) at a concentration of 0.0002-0.001 M.
(§2) The Michaelis constant, Km, for substrate hydrolysis by each protease, was determined at 25° C. or 37° C. in the absence of inhibitor. Values of Ki were determined by allowing the protease to react with the substrate in the presence of the inhibitor. Reactions were allowed to go for periods of 20-180 minutes (depending on the protease) and the velocities (rate of absorbance or fluorescence change versus time) were measured. The following relationships were used to calculate Ki values: (Vmax*S)/(Km+S) (vo−vs)/vs=I/(Ki*(1+S/Km)) for a competitive inhibitor with one binding site; or vs/vo=A+((B−A)/(1+(IC50/(I)^n)); and Ki=IC50/(1+S/Km) for a competitive inhibitor where: […]

human plasma kallikrein = biological target: T2, human plasma kallikrein (Homo sapiens, UniProt P03952); assay: Plasma kallikrein enzyme inhibition assay (chromogenic substrate S-2302), Ki; type: biochemical; details: purified human plasma kallikrein, substrate S-2302, pH 7.5
T2 construct: purchased Enzyme Research Laboratories
Procedure: as §1
Plasma kallikrein determinations were made in 0.1 M sodium phosphate buffer at a pH of 7.5 containing 0.1-0.2 M sodium chloride and 0.5% PEG 8000. Determinations were made using purified human plasma kallikrein (Enzyme Research Laboratories) at a final assay concentration of 200 pM and the synthetic substrate S-2302 (H-(D)-Pro-Phe-Arg-pNA; CHROMOGENIX®) at a concentration of 0.00008-0.0004 M.
as §2

T1 sequence (P03951 388-625 limits assumed): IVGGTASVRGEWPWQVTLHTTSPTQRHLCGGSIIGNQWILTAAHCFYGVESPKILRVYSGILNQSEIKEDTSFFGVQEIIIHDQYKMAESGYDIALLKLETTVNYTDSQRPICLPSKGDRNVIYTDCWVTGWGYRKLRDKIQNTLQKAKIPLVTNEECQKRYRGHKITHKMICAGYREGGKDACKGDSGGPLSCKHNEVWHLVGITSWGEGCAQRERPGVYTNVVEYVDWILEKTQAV
T1 sequence (P03951 19-387 partner limits assumed): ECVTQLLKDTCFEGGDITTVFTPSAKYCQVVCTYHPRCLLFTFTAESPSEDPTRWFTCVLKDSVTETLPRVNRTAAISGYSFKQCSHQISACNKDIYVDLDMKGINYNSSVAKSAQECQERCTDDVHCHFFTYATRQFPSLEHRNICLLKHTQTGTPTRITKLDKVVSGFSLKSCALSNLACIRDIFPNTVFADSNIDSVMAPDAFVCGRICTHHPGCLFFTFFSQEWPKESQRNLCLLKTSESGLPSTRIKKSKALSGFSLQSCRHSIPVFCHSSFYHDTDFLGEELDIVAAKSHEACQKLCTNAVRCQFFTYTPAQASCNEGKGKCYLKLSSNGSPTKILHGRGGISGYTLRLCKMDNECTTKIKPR
T2 sequence (P03952 391-638 limits assumed): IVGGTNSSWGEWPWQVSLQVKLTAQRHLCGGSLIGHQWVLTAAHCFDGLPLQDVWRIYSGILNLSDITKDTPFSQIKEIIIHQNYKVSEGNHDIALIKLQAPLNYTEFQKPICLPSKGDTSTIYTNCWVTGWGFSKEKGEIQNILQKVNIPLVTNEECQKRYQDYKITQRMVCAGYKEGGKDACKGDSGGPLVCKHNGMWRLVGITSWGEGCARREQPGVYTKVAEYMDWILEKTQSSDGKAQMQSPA
T2 sequence (P03952 20-390 partner limits assumed): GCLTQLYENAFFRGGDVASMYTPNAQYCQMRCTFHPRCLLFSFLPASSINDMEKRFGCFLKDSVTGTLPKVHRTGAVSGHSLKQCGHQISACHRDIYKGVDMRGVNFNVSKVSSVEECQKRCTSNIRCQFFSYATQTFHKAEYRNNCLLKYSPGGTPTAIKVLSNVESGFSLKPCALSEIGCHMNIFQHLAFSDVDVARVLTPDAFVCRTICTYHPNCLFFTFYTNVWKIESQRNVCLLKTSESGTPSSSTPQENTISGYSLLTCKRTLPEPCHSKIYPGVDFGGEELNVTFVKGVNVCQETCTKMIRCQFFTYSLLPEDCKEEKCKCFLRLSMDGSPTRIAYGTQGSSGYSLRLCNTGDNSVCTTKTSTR

SMILES | Ki (human Factor XIa) [nM] | Ki (human plasma kallikrein) [nM]
Cc1c(C(=O)N[C@H]2CCCCCNC(=O)[C@H]3CN(C(=O)OC(C)(C)C)CCN3c3cccc2c3)cnn1-c1cccc(Cl)c1F [Example 18, tert-butyl (7R,15S)-15-[1-(3-chloro-2-fluorophenyl)-5-methyl-1H-pyrazole-4-amido]-8-oxo-2,5,9-triazatricyclo[14.3.1.0^2,7]icosa-1(20),16,18-triene-5-carboxylate, trifluoromethylacetate] | 3310 | 3830
Cc1c(C(=O)N[C@H]2CCCCCNC(=O)[C@H]3CNCCN3c3cccc2c3)cnn1-c1cccc(Cl)c1F [Example 20, 1-(3-chloro-2-fluorophenyl)-5-methyl-N-[(7R,15S)-8-oxo-2,5,9-triazatricyclo[14.3.1.0^2,7]icosa-1(20),16,18-trien-15-yl]-1H-pyrazole-4-carboxamide hydrochloride] | 1310 | 2550
COC(=O)N1CCN2c3cccc(c3)[C@@H](NC(=O)c3cnn(-c4cccc(Cl)c4F)c3C)CCCCCNC(=O)[C@H]2C1 [Example 21, methyl (7R,15S)-15-[1-(3-chloro-2-fluorophenyl)-5-methyl-1H-pyrazole-4-amido]-8-oxo-2,5,9-triazatricyclo[14.3.1.0^2,7]icosa-1(20),16,18-triene-5-carboxylate, trifluoromethyl acetate] | 1060 | 9170
COC(=O)N1CCN2c3cccc(c3)[C@@H](N3CCC(c4cc(Cl)ccc4-n4cc(Cl)nn4)=CC3=O)CCCCCNC(=O)[C@H]2C1 [Example 22, methyl (7R,15S)-15-{4-[5-chloro-2-(4-chloro-1H-1,2,3-triazol-1-yl)phenyl]-6-oxo-1,2,3,6-tetrahydropyridin-1-yl}-8-oxo-2,5,9-triazatricyclo[14.3.1.0^2,7]icosa-1(20),16,18-triene-5-carboxylate trifluoromethyl acetate] | 5 | 189
COC(=O)NC[C@H]1Nc2cccc(c2)[C@@H](n2cnc(-c3cc(Cl)ccc3-n3cc(Cl)nn3)cc2=O)CCCCCNC1=O [Example 23, methyl N-{[(3R,11S)-11-{4-[5-chloro-2-(4-chloro-1H-1,2,3-triazol-1-yl)phenyl]-6-oxo-1,6-dihydropyrimidin-1-yl}-4-oxo-2,5-diazabicyclo[10.3.1]hexadeca-1(16),12,14-trien-3-yl]methyl}carbamate trifluoromethyl acetate] | 27 | 2720
O=C(NC[C@H]1Nc2cccc(c2)[C@@H](n2cnc(-c3cc(Cl)ccc3-n3cc(Cl)nn3)cc2=O)CCCCCNC1=O)c1cccnc1 [Example 24, N-{[(3R,11S)-11-{4-[5-chloro-2-(4-chloro-1H-1,2,3-triazol-1-yl)phenyl]-6-oxo-1,6-dihydropyrimidin-1-yl}-4-oxo-2,5-diazabicyclo[10.3.1]hexadeca-1(16),12,14-trien-3-yl]methyl}pyridine-3-carboxamide trifluoromethylacetate] | 62 | 5200
CC(C)(C)OC(=O)NCC[C@H]1Nc2cccc(c2)[C@@H](n2cnc(-c3cc(Cl)ccc3-n3cc(Cl)nn3)cc2=O)CCCCCNC1=O [Example 26, tert-butyl N-{2-[(3R,11S)-11-{4-[5-chloro-2-(4-chloro-1H-1,2,3-triazol-1-yl)phenyl]-6-oxo-1,6-dihydropyrimidin-1-yl}-4-oxo-2,5-diazabicyclo[10.3.1]hexadeca-1(16),12,14-trien-3-yl]ethyl}carbamate trifluoromethylacetate] | 24 | 430
NCC[C@H]1Nc2cccc(c2)[C@@H](n2cnc(-c3cc(Cl)ccc3-n3cc(Cl)nn3)cc2=O)CCCCCNC1=O [Example 27, (3R,11S)-3-(2-aminoethyl)-11-{4-[5-chloro-2-(4-chloro-1H-1,2,3-triazol-1-yl)phenyl]-6-oxo-1,6-dihydropyrimidin-1-yl}-2,5-diazabicyclo[10.3.1]hexadeca-1(16),12,14-trien-4-one hydrochloride] | 871 | 14000
COC(=O)NCC[C@H]1Nc2cccc(c2)[C@@H](n2cnc(-c3cc(Cl)ccc3-n3cc(Cl)nn3)cc2=O)CCCCCNC1=O [Example 28, methyl N-{2-[(3R,11S)-11-{4-[5-chloro-2-(4-chloro-1H-1,2,3-triazol-1-yl)phenyl]-6-oxo-1,6-dihydropyrimidin-1-yl}-4-oxo-2,5-diazabicyclo[10.3.1]hexadeca-1(16),12,14-trien-3-yl]ethyl}carbamate trifluoromethyl acetate] | 5 | 83
COC(=O)NCC[C@@H]1Nc2cccc(c2)[C@@H](NC(=O)c2cnn(-c3cccc(Cl)c3F)c2Cl)CCCCCNC1=O [Example 31, methyl N-{2-[(3S,11S)-11-[5-chloro-1-(3-chloro-2-fluorophenyl)-1H-pyrazole-4-amido]-4-oxo-2,5-diazabicyclo[10.3.1]hexadeca-1(16),12,14-trien-3-yl]ethyl}carbamate, trifluoromethylacetate] | 1830 | 9490
O=C1NCCCC[C@H](n2cnc(-c3c(-n4cc(Cl)nn4)ccc(Cl)c3F)cc2=O)c2cc(F)cc(c2)N2C(=O)CC[C@H]12 [Example 32, (6R,13S)-13-{4-[3-chloro-6-(4-chloro-1H-1,2,3-triazol-1-yl)-2-fluorophenyl]-6-oxo-1,6-dihydropyrimidin-1-yl}-16-fluoro-2,8-diazatricyclo[12.3.1.0^2,6]octadeca-1(18),14,16-triene-3,7-dione] | 77.5 | 5300
O=C1NCCCCC[C@H](n2cnc(-c3c(-n4cc(Cl)nn4)ccc(Cl)c3F)cc2=O)c2cccc(c2)N2C(=O)CC[C@H]12 [Example 34, (6R,14S)-14-{4-[3-chloro-6-(4-chloro-1H-1,2,3-triazol-1-yl)-2-fluorophenyl]-6-oxo-1,6-dihydropyrimidin-1-yl}-2,8-diazatricyclo[13.3.1.0^2,6]nonadeca-1(19),15,17-triene-3,7-dione] | 6 | 134

Continued by falling Ki (human Factor XIa), values first:

Ki (human Factor XIa) [nM] | Ki (human plasma kallikrein) [nM] | SMILES
515 | 5680 | COC(=O)NCC[C@@H]1Nc2cccc(c2)[C@@H](n2cnc(-c3cc(Cl)ccc3-n3cc(Cl)nn3)cc2=O)CCCCCNC1=O [Example 30, methyl N-{2-[(3S,11S)-11-{4-[5-chloro-2-(4-chloro-1H-1,2,3-triazol-1-yl)phenyl]-6-oxo-1,6-dihydropyrimidin-1-yl}-4-oxo-2,5-diazabicyclo[10.3.1]hexadeca-1(16),12,14-trien-3-yl]ethyl}carbamate trifluoromethyl acetate]
51 | 6750 | O=C1CN2c3cccc(c3)[C@@H](n3cnc(-c4cc(Cl)ccc4-n4cc(Cl)nn4)cc3=O)CCCCCNC(=O)C2CN1 (stereo partly drawn) [Example 25, (15S)-15-{4-[5-chloro-2-(4-chloro-1H-1,2,3-triazol-1-yl)phenyl]-6-oxo-1,6-dihydropyrimidin-1-yl}-2,5,9-triazatricyclo[14.3.1.0^2,7]icosa-1(20),16,18-triene-4,8-dione]
12 | 319 | O=C1NCCCCC[C@H](n2cnc(-c3cc(Cl)ccc3-n3cc(C(F)(F)F)nn3)cc2=O)c2cccc(c2)N2C(=O)CC[C@H]12 [Example 33, (6R,14S)-14-(4-{5-chloro-2-[4-(trifluoromethyl)-1H-1,2,3-triazol-1-yl]phenyl}-6-oxo-1,6-dihydropyrimidin-1-yl)-2,8-diazatricyclo[13.3.1.0^2,6]nonadeca-1(19),15,17-triene-3,7-dione]
5 | 345 | CC(C)(C)OC(=O)N1CCN2c3cccc(c3)[C@@H](n3cnc(-c4c(-n5cc(Cl)nn5)ccc(Cl)c4F)cc3=O)CCCCCNC(=O)[C@H]2C1 [Example 19, tert-butyl (7R,15S)-15-{4-[3-chloro-6-(4-chloro-1H-1,2,3-triazol-1-yl)-2-fluorophenyl]-6-oxo-1,6-dihydropyrimidin-1-yl}-8-oxo-2,5,9-triazatricyclo[14.3.1.0^2,7]icosa-(20),16,18-triene-5-carboxylate trifluoromethylacetate]
5 | 49 | O=C(NCC[C@H]1Nc2cccc(c2)[C@@H](n2cnc(-c3cc(Cl)ccc3-n3cc(Cl)nn3)cc2=O)CCCCCNC1=O)c1ccn(C(F)F)n1 [Example 29, N-{2-[(3R,11S)-11-{4-[5-chloro-2-(4-chloro-1H-1,2,3-triazol-1-yl)phenyl]-6-oxo-1,6-dihydropyrimidin-1-yl}-4-oxo-2,5-diazabicyclo[10.3.1]hexadeca-1(16),12,14-trien-3-yl]ethyl}-1-(difluoromethyl)-1H-pyrazole-3-carboxamide trifluoromethyl acetate]
